“And” between values parts separate entries of the source, which are not always exact repeats. Equal entries are not always repeated.
Tested on: TT antigen
Assay: Subcutaneous immunization with TT antigen (tetanos toxoid): specific serum immunoglobulins (ELISA)
Format: in vivo, BALB/c mice
Conditions: for adjuvant effect on titer of IgG1 and IgG2a antibodies specifically raised against TT: after one or two injections, FIGS. 28, 29; for Titer of immunoglobulins specifically directed against TT of IgM subclass (number of animals and dilution): dilution giving signal at 490 nm greater than mean ± 3 SD of group A; for Immunoglobulins specifically raised against TT of IgG1 subclass / Immunoglobulins specifically raised against TT of IgG2a subclass: s.c. injections days 0 and 14, adjuvant 50 μg per injection, ± SD
Experimental: To this end, 40 BALB/c mice (females, 8 weeks-old at the beginning of treatment) are divided into 4 groups as follows:
Antigen: A TT stock solution is prepared at a concentration of 0.2 mg/ml in 0.9% NaCl.
The negative control consists of a 0.9% NaCl solution without antigen.
Antigen-Adjuvant mixture: Adjuvants are allowed to stand for 20 minutes at 37° C. before vortex treatment for 3 minutes. Then the antigen and (0.9%) NaCl are added as specified in the above Table, and the antigen/adjuvant mixture is vortexed briefly before placing it on a rotary stirrer for 15 minutes at room temperature, then the whole mixture is vortexed for 3 minutes.
Immunization regimen: Injections are scheduelled on days 0 and 14. The mixtures stated in the preceeding table are administered by subcutaeous route (75 μl on the side, 150 μl in total per animal). Blood sampling is scheduelled on days 14 and 28 (orbital puncture).
Assay for anti-TT immunoglobulins: The following serum Immunolglobulins which are specifically directed against TT are assayed in duplicate by ELISA: IgG1, IgG2a, and IgM. Microtiter plates (NUNC Immunoplate, Roskilde, DK) are incubated (overnight coating) at 4° C. together with 100 μl TT (0.5 μg) in bicarbonate buffer (pH 9.6). After washing with 0.5% Tween-20 (Merck Hohenbrunn, D), sera are diluted 50-, 200- and 800-fold (diluting solution: phosphate buffered saline (PBS)+1% bovine serum albumin (BSA, Sigma, St. Louis, Mo., USA)+0.02% Tween-20)). 100 μl of each dilute serum sample are added to the wells. Incubation lasts 45 minutes at 37° C.
After a second washing step, IgG1, IgG2a and IgM specifically directed to ovalbumin are incubated for 30 minutes at 37° C. together with 100 μl of anti-IgG1 antibodies-peroxydase conjugate (Serotec, Oxford, UK), IgG2a-peroxydase conjugate (Pharmingen, San Diego, Calif., USA) and IgM-biotin conjugate (Pharmingen, San Diego, Calif., USA), diluted beforehand in PBS/BSA/Tween buffer (250-, 1000-, 500-fold dilutions, respectively). For IgM, after an extra washing step, a 3rd incubation step is required (30 min. at 37° C.) with a 1:100 dilute solution of streptavidin-peroxydase conjugate (Dako, Glostrup, DK).
After the washing step, 100 μl of a phenylene 1,2-diamine solution (OPD, Merck, Darmstadt, GFR) are added to detect peroxydase-coupled anti-IgG1 and anti-IgG2 secondary antibodies (whereas for IgM, the reagent being used is 3′, 3′, 5′,5′-tetramethylbenzidine (TMB, Sigma, St. Louis, Mo., USA). After a 20 minute incubation period at room temperature (40 min. for TMB), the reaction is stopped by adding 100 μl of 2N H2SO4. Absorbance values are read at 490 nm with a Bio-Rad 3550 model plate reader
Results of each reading at 490 nm when measuring IgG1 and IgG2a are given in arbitrary units (A.U.) per ml. This is achieved by comparing each sample with a standard prepared from different dilutions of a sample pool collected from the group B at day 28 (animals injected with TT alone). As this term implies, the sample pool diluted 50-fold is at a concentration of 1000 A.U./ml. Individual results are then corrected for the corresponding dilution factor (50, 200, or 800 fold). Only the mean values of each group and the standard deviation (SD) are herein reported.
Regarding the assay of IgM specific for TT, since the “background noise” of the assay was too high, no clear cut difference could be found between group B (TT alone) and groups C and D (TT with adjuvant) by measuring specific IgM as previously done for IgG1 and IgG2a. Instead, specific IgM titer could be determined, using successive dilutions of each sample (rather than A.U. described before) and the result was reported, for each sample, as the highest dilution which gives an absorbance reading greater than mean absorbance±3 SD for group A (NaCl).

Compound	adjuvant effect on titer of IgG1 and IgG2a antibodies specifically raised against TT	Titer of immunoglobulins specifically directed against TT of IgM subclass (number of animals and dilution) (Day 14)	Immunoglobulins specifically raised against TT of IgG1 subclass (Day 14)	Immunoglobulins specifically raised against TT of IgG2a subclass (Day 14)	Titer of immunoglobulins specifically directed against TT of IgM subclass (number of animals and dilution) (Day 28)	Immunoglobulins specifically raised against TT of IgG1 subclass (Day 28)	Immunoglobulins specifically raised against TT of IgG2a subclass (Day 28)
CCCCCCCCCCCC(=O)O[C@H](CCCCCCCCCCC)CC(=O)NC(CCOP(=O)(O)O)C(=O)NCCCC(COP(=O)(O)O)NC(=O)C[C@H](O)CCCCCCCCCCC (stereo partly drawn) [OM-294-DP, 3-[(R)-3-dodecanoyloxytetradecanoylamino]-4-oxo-5-aza-9-[(R)-3-hydroxytetradecanoylamino]decan-1,10-diol 1, 10-bis(dihydrogenphosphate)]	often significantly increase the titer of IgG1 and IgG2a antibodies						
CCCCCCCCCCCC(=O)O[C@H](CCCCCCCCCCC)CC(=O)NC(CCOP(=O)(O)O)C(=O)NCCCC(CO)NC(=O)C[C@H](O)CCCCCCCCCCC (stereo partly drawn) [OM-294-MP, 3-[(R)-3-dodecanoyloxytetradecanoylamino]-4-oxo-5-aza-9-[(R)-3-hydroxytetradecanoylamino]-decane-1,10-diol 1-dihydrogenphosphate]	often significantly increase the titer of IgG1 and IgG2a antibodies						
TT: TT antigen (tetanos toxoid, Massachussetts Biologic Laboratoires), injected alone		9 animals < 25 and 1 animal < 50	2871 ± 1633 Arbitrary units/ml	2547 ± 2539 Arbitrary units/ml	10 animals < 25	34367 ± 15018 Arbitrary units/ml	61387 ± 82269 Arbitrary units/ml

Reference: patent US7157092B1, “Acyl pseudodipeptides, preparation method and pharmaceutical compositions containing same” (Om Pharma, priority 1998, dated 2007)
